The results in this text go back to patent publication US8530652B2, “Pyrrolopyrazoles, potent kinase inhibitors” (Agouron Pharmaceuticals, Inc., priority 2005, dated 2013).

Chain of PAK4 kinase domain (PAK4 KD) (O96013 321-572): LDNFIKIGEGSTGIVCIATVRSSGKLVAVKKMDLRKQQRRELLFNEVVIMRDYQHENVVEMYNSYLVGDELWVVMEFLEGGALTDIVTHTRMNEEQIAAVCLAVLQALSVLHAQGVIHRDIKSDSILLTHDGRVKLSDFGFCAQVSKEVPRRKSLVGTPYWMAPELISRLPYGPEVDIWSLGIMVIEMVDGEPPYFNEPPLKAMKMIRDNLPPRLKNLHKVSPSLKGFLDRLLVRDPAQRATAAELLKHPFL

In this experiment the target is PAK4 kinase domain (PAK4 KD) (Homo sapiens (Human), UniProt O96013). Description: PAK4 kinase domain enzymatic assay (coupled PK/LDH, NADH absorbance at 340 nm). As to conditions: PAK4 kinase domain, 25 nM PAK4 KD, 0.04 mM ATP, pH 7.5. Format: biochemical. From the text:
Cloning, expression, and purification of recombinant PAK4 Kinase domain (PAK4 KD): The cDNA coding for PAK4 was amplified from the EST clone (#12) (purchased from Research Genetics) by using PCR. […] The PCR amplified product was cloned into Topo vector (Invitrogen Inc.), and verified by DNA sequencing. PAK4 KD was then subcloned into expression plasmid pET28a(+), pET24a(+), or pGST4.5. The recombinant plasmids containing PAK4 KD was transformed into BL21(DE3) cells for recombinant protein expression. […] The cells were then harvested and lyzed for protein purification. Ni-NTA column (pET28a(+), pET24a(+)) and glutathione column (pGST4.5) were used for the purification.
PAK4 kinase domain enzymatic assay conditions: the enzymatic activity of PAK4 KD was measured by its ability to catalyze the transfer of a phosphate residue from a nucleoside triphosphate to an amino acid side chain of a commercially available peptide (amino acid sequence […]). The conversion of ATP to ADP accompanies the catalytic reaction. The PAK4 KD catalyzed production of ADP from ATP was coupled to the oxidation of NADH through the activities of pyruvate kinase (PK) and lactate dehydrogenase (LDH). The conversion of NADH to NAD^+ is monitored by the decrease in absorbance at 340 nm (e340=6.22 cm^−1mM^−1) using a Molecular Devices SPECTRAMAX 190 in conjunction with the Biomec FX. Typical reaction solutions contain 2 mM phosphoenolpyruvate, 0.35 mM NADH, 10 mM MgCl2, 1 mM DTT, 0.4 mM peptide ([…]) 0.04 mM ATP, 1 units/mL PK, 1 units/mL LDH, 0.01% Tween 20 in 50 mM HEPES, pH 7.5. […] The PAK KD Ki of each compound of the invention (the inhibitor) was calculated based on multiple of Percent Inhibition numbers of the inhibitor at different inhibitor concentrations. The peptide (amino sequence […]) was purchased from American Peptide Company. NADH, MgCl2, HEPES, DTT, ATP and PK/LDH were purchased from Sigma. Tween 20 was purchased from Calbiochem.
Take `CC1(C)c2[nH]nc(Nc3cc(Cl)nc(Cl)n3)c2CN1C(=O)N[C@H]1C[C@@H]1c1ccccc1` (relative stereo) [Example 4, 3-[(2,6-dichloropyrimidin-4-yl)amino]-6,6-dimethyl-N-[trans-2-phenylcyclopropyl]-4,6-dihydropyrrolo[3,4-c]pyrazole-5(1H)-carboxamide]: the Ki (commonly a measure of affinity in units of concentration, obtained from inhibition or displacement) is 110 nM.
Next, `CC1(C)c2[nH]nc(Nc3nc(N)nc(Cl)n3)c2CN1C(=O)N[C@@H]1C[C@H]1c1ccccc1` (relative stereo) [Example 8, 3-[(4-amino-6-chloro-1,3,5-triazin-2-yl)amino]-6,6-dimethyl-N-[trans-2-phenylcyclopropyl]-4,6-dihydropyrrolo[3,4-c]pyrazole-5(1H)-carboxamide]: 610 nM; `CSc1nc(Nc2n[nH]c3c2CN(C(=O)N[C@@H]2C[C@H]2c2ccccc2)C3(C)C)cc(C(F)(F)F)n1` (relative stereo) [Example 11, 6,6-dimethyl-3-{[2-(methylthio)-6-(trifluoromethyl)pyrimidin-4-yl]amino}-N-[trans-2-phenylcyclopropyl]-4,6-dihydropyrrolo[3,4-c]pyrazole-5(1H)-carboxamide]: 960 nM; `COc1nc(Nc2n[nH]c3c2CN(C(=O)N[C@H]2C[C@@H]2c2ccccc2)C3(C)C)nc(OC)n1` (relative stereo) [Example 14, 3-[(4,6-dimethoxy-1,3,5-triazin-2-yl)amino]-6,6-dimethyl-N-[trans-2-phenylcyclopropyl]-4,6-dihydropyrrolo[3,4-c]pyrazole-5(1H)-carboxamide]: 270 nM.
Next, `COc1nc(Nc2n[nH]c3c2CN(C(=O)N[C@@H]2C[C@H]2c2ccccc2)C3(C)C)nc(N2CCCC2)n1` (relative stereo) [Example 19, 3-[(4-methoxy-6-pyrrolidin-1-yl-1,3,5-triazin-2-yl)amino]-6,6-dimethyl-N-[trans-2-phenylcyclopropyl]-4,6-dihydropyrrolo[3,4-c]pyrazole-5(1H)-carboxamide]: 190 nM; `CC1(C)c2[nH]nc(Nc3cc(C(F)(F)F)ccn3)c2CN1C(=O)N[C@H]1C[C@@H]1c1ccccc1` (relative stereo) [Example 25, 3-[(4-trifluoromethylpyridin-2-yl)amino]-6,6-dimethyl-N-[trans-2-phenylcyclopropyl]-4,6-dihydropyrrolo[3,4-c]pyrazole-5(1H)-carboxamide]: 780 nM; `Cc1cc(C(F)(F)F)cc(Nc2n[nH]c3c2CN(C(=O)N[C@H]2C[C@@H]2c2ccccc2)C3(C)C)n1` (relative stereo) [Example 26, 3-[(4-trifluoromethyl-6-methylpyridin-2-yl)amino]-6,6-dimethyl-N-[trans-2-phenylcyclopropyl]-4,6-dihydropyrrolo[3,4-c]pyrazole-5(1H)-carboxamide]: 220 nM.
Next, `CC1(C)c2[nH]nc(Nc3cccc(C(F)(F)F)n3)c2CN1C(=O)N[C@H]1C[C@@H]1c1ccccc1` (relative stereo) [Example 27, 3-[(6-trifluoromethylpyridin-2-yl)amino]-6,6-dimethyl-N-[trans-2-phenylcyclopropyl]-4,6-dihydropyrrolo[3,4-c]pyrazole-5(1H)-carboxamide]: 200 nM; `CC1(C)c2[nH]nc(Nc3nccc(C(F)(F)F)n3)c2CN1C(=O)N[C@H]1C[C@@H]1c1ccccc1` (relative stereo) [Example 28, 6,6-dimethyl-N-[trans-2-phenylcyclopropyl]-3-{[4-(trifluoromethyl)pyrimidin-2-yl]amino}-4,6-dihydropyrrolo[3,4-c]pyrazole-5(1H)-carboxamide]: 270 nM.
Consider `CC1(C)c2[nH]nc(Nc3cc(C#N)ccn3)c2CN1C(=O)N[C@H]1C[C@@H]1c1ccccc1` (relative stereo) [Example 29, 3-[(4-cyanopyridin-2-yl)amino]-6,6-dimethyl-N-[trans-2-phenylcyclopropyl]-4,6-dihydropyrrolo[3,4-c]pyrazole-5(1H)-carboxamide], for which the affinity, expressed as Ki, was 660 nM.
